# Reference: ChEMBL document CHEMBL3507680, “University of Dundee, Gates Library screen for HepG2 cell viability”
# Test: Human HepG2 cell viability assay in 384 well format
# Format: toxicity, cell-based
# Design: dose 125 nL, time 70.5 hour; concentration not given beside the values
# Settings: HepG2 cells, read-out: Inhibition
row,SMILES,cytotoxicity at 70.5 h
1,CC(C1CC1)N(C)Cc1nnc(-c2ccco2)o1 (centres undefined),1.08%
2,CN(C)c1ccc(C(=O)N2CCCC(n3cccn3)C2)cn1 (centres undefined),15%
3,CCOC(=O)C(C)NC(=O)N1CCN(c2nc3ccccc3n2C)CC1 (centres undefined),-2.33%
4,CC(C)n1cc(CN2CCCN(C(=O)C3CCOC3)CC2)cn1 (centres undefined),19.9%
5,NC(=O)NC(CC(=O)N1CCc2sccc2C1)c1cccc(Br)c1 (centres undefined),-18.1%
6,COCCC(=O)N1CCCCC1c1ccc(F)cc1 (centres undefined),5.22%
7,Cc1cccc(OCCCNC(=O)NC(C)c2nncn2C)c1 (centres undefined),-6.42%
8,Cc1cc(C)nc(CNC(=O)C(c2cccnc2)N2CCOCC2)n1 (centres undefined),-6.63%
9,CN1CC(=O)N(c2ccsc2)CC12CCN(C(=O)Nc1ccccc1)C2 (centres undefined),-4.43%
10,CC(C(=O)N1CCOCC1)S(=O)(=O)Cc1nc(C(C)(C)C)no1 (centres undefined),-9.65%
11,CC(C)n1[nH]c(=O)c2c1NC(=O)CC2c1ccc(C#N)cc1 (centres undefined),18.7%
12,O=C(c1nc(Cc2c[nH]c3ccccc23)no1)N1CCCCC1,-7.41%
13,CN1C(=O)C(c2ccccc2)CC12CCN(CCO)CC2 (centres undefined),-14.6%
14,CN1CCc2ccc(NCc3cccs3)cc2C1=O,-15.5%
15,O=S(=O)(NCC(O)c1cccs1)c1ccccc1Cl (centres undefined),11%
16,CC(C)N1CC2(CCC1=O)CCN(C(=O)c1cccc(F)c1F)CC2,-5.47%
17,CCC[C@H]1CN(c2nccc(OC)n2)C[C@@H]1NC(=O)C1CCOCC1,-6.8%
18,Cc1ccc(-c2cc(N)c(=O)n(C(C)C(=O)NCC3CCCCC3)n2)s1 (centres undefined),18%
19,COc1nn(C)c2c1CCCN(C(=O)c1c[nH]cn1)C2,-1.78%
20,CCOCC(=O)Nc1ccc(N2CCSCC2)cc1C,-7.62%
21,CN(C(=O)C1CCCCC1)[C@@H]1CCC[C@@H](N2CCOCC2)[C@@H]1O,-11.9%
22,O=C(CSCC1CC1)N1C[C@@H]2CC[C@H](C1)N(Cc1ccccn1)C2=O,-8.12%
23,CN(CCCNC(=O)c1cccc(OCC(N)=O)c1)CC(F)(F)F,0.403%

row,SMILES,cytotoxicity at 70.5 h
1,CCCN(C)c1ncc2c(n1)N(C)CCN(CC1CC1)C2=O,-1.69%
2,O=c1c(S(=O)(=O)N2CCCC2)cccn1Cc1ccccc1Cl,-6.09%
3,Cc1noc(CNc2c(N3CCCC3)cccc2N2CCCC2)n1,7.99%
4,CC(C)CN1CCC2(C=C(C(=O)NC3CC3)c3ccccc32)CC1,-11.9%
5,COC(=O)c1oc(CNC(C)(C)c2ccc3c(c2)OCCO3)cc1C,20.9%
6,Cc1cc(N(C)Cc2ncc[nH]2)nc(-c2ccccc2)n1,-6.89%
7,Cc1cccc(-n2nc(CC(C)C)nc2CS(C)(=O)=O)c1,-2.84%
8,c1cncc(OC[C@@]23CCC[C@@H]2CN(C2CCOCC2)C3)c1,-1.53%
9,CC(C)[C@H](Nc1nc(C2CCCC2)nc2c1cnn2C)C(N)=O,-12.3%
10,CCC(C)N(CCOC)Cc1nc2c(cnn2C)c(=O)[nH]1 (centres undefined),17.1%
11,Cc1nc(CC(=O)NCCN2CCC(c3ccccc3C)C2)cs1 (centres undefined),-8.35%
12,CN1CC(=O)N(c2cccc(F)c2)CC12CCN(Cc1ccco1)C2 (centres undefined),-5.08%
13,Cc1ccc(CN(C)C(=O)C(C)n2cncn2)o1 (centres undefined),-4.1%
14,CCCc1nncn1-c1cc(OC)ccc1OC,-1.39%
15,Cc1ccc(OC2(C(=O)NC(C)c3csc(C)n3)CCNCC2)cc1 (centres undefined),22.5%
16,CC(c1ccccc1)n1c(SCC(=O)O)nnc1-c1ccccc1Cl (centres undefined),-4%
17,CCc1nc(C)c(CN2CCN(c3ncnc4scc(C)c34)CC2)[nH]1,-9.72%
18,CCC(C)(CO)NC(=O)Nc1cc2c(cc1SC)OCCO2 (centres undefined),-1.22%
19,CCOc1ccc(NC(C)C(=O)NCCc2cccs2)cc1CO (centres undefined),-3.5%
20,CCN(CC)c1ncc(CNC2CCc3nc(C)nn3C2)s1 (centres undefined),4.79%
21,O=C(c1cccnc1)N1CCN(c2ccnc3ccsc23)CC1,-10.7%
22,COCCNC(=O)NCC(C)c1ccccc1OC (centres undefined),-8.45%
23,O=C1c2cccnc2OC(CN2CCOCC2)CN1C1CCC1 (centres undefined),-4.26%

row,SMILES,cytotoxicity at 70.5 h
1,COc1ccc2c3c1CN(C(=O)N(C)C)CC3=CC(C)(C)CO2,-6.85%
2,c1cnc(N2CCN(CCn3ccnc3-c3ccncc3)CC2)nc1,12.5%
3,CCN(Cc1ccc(C(C)=O)cc1)CC1CCOCC1,20.6%
4,CCCc1noc(CCC(=O)N2CCCC(c3ccn[nH]3)C2)n1 (centres undefined),-9.26%
5,CN1CCCC(c2n[nH]c3ncccc23)C1 (centres undefined),-11.4%
6,CC(Cn1cccn1)NCc1csc2c1CCCC2 (centres undefined),0.457%
7,COC(=O)CN(C(=O)c1cccc(F)c1Cl)c1cccc(C)n1,1.83%
8,c1cnc(NC[C@H]2OC[C@@H]3CCN(Cc4ccsc4)C[C@@H]32)nc1,-6.36%
9,O=C(c1cc(CC2(NCc3ccccc3)COC2)no1)N1CCCCC1,-5.63%
10,Cc1ccc(OCCN2CCN(Cc3cnn(CCO)c3)CC2)cc1,-0.0785%
11,CC(C)c1nn(C)c(N(C)C)c1CNC1CCOc2c(F)cccc21 (centres undefined),-2%
12,Cc1noc(C)c1CN(C)Cc1cnc(N2CCOCC2)nc1,-4.31%
13,Cc1ccc(C(=O)N2C[C@H]3CCCC(OCc4cccnc4)[C@H]3C2)cn1 (some centres undefined),-1.36%
14,CC(C)c1nc(N2CCC(N3CCCC(O)C3)CC2)c2cnn(C)c2n1 (centres undefined),1.93%
15,Cc1ccc2c(ccn2CCC(=O)O)c1,-4.94%
16,CCOC(=O)c1nnc2ccccc2c1N1CCN(CC)CC1,-7.65%
17,CC(O)CN1CCC(CN(C)CC(=O)NC2CCOCC2)CC1 (centres undefined),-2.54%
18,CC(NCc1ccncc1)c1ccc(N2CCN(C)CC2)c(F)c1 (centres undefined),4.11%
19,CC(C)NC(=O)N1CCOC2(CCNCC2)C1,-2.57%
20,CNC(=O)c1cc2c(nc1N(C)C)CCN(c1ncccn1)CC2,-12%
21,COCC(O)CNC(=O)c1coc(COc2ccc3sc(C)nc3c2)n1 (centres undefined),-9.49%
22,O=C(C[S+]([O-])Cc1ccc(F)cc1Cl)NC1CCCC1 (centres undefined),-6.82%
23,CC(=O)N1CCN(C(=O)Nc2cnc3c(cnn3C(C)C)c2)CC1,14.8%

row,SMILES,cytotoxicity at 70.5 h
1,COCCN1CCC(NC(=O)NCC2(c3ccccc3)CC2)C1 (centres undefined),-9.2%
2,Cn1nccc1C(=O)N1CC[C@]2(C[C@H](OCc3ccccn3)CO2)C1,-11.1%
3,Cc1cccc(C2(C(=O)NC(C)Cn3ccnc3)CC2)c1 (centres undefined),-8.86%
4,COc1ccc(F)cc1C(C)NC(=O)c1nnc(C)s1 (centres undefined),-5.29%
5,CC(C)N(Cc1cnn(C)c1)CC1CCCN(S(C)(=O)=O)C1 (centres undefined),10.1%
6,NC(=O)c1ccc(N2CCN(Cc3c(Cl)cncc3Cl)CC2)nc1,10.8%
7,Cn1ccc(C(=O)N2CCCC2c2cc(CCO)[nH]n2)n1 (centres undefined),-1.26%
8,Cc1nn(C)c2nc(N(CCOc3ccccc3)CC3CCCO3)sc12 (centres undefined),21%
9,Cc1ccc2cccc(S(=O)(=O)N(C)CC3CCN(C)C3)c2n1 (centres undefined),-0.784%
10,CCc1ncc2c(n1)CN(Cc1nnc(Cc3ccccc3)o1)CC2,-1.62%
11,Cc1nc(NC2CCCCC2)cc(C2CCCNC2)n1 (centres undefined),26.4%
12,Cc1ncsc1CCN(C)C(=O)c1ccc(CN2CCCCC2)cc1,0.585%
13,Cc1oc(C)c(C(=O)NS(=O)(=O)c2ccc3c(c2)OCCCO3)c1C,-27.5%
14,Cc1nc(C2CCCN(C(=O)c3cccc(S(C)(=O)=O)c3)C2)no1 (centres undefined),-9.98%
15,O=C(c1ccc(-n2cccn2)nc1)N1CCC(Nc2cccnn2)CC1,-18.2%
16,CSCCC(=O)N1CCC(Oc2cc(C)ccc2F)(C(=O)O)CC1,-7.4%
17,O=C(NCCC(=O)N1CCCc2ccccc21)c1c(F)cccc1F,-12.4%
18,CC(=O)N1CCc2c(nc(N(C)C)nc2NCc2cccs2)C1,-4.81%
19,Cc1ccc(CN2CCOC3(CCCN(C(=O)c4ccco4)C3)C2)s1 (centres undefined),-10.7%
20,O=C1COC2(CCN(Cc3nccs3)CC2)CN1CC1CC1,6.87%
21,Cc1ccc(C(=O)N2CCC(Oc3ccc(C)c(C)c3)CC2)c(=O)[nH]1,-2.32%
22,COCCCN1C(=O)CC[C@H]2CN(c3nc4ccccc4s3)CC[C@H]21,-3.23%
23,Cc1cc(C(=O)N2CCOCC2c2nc(C)c[nH]2)nc(O)n1 (centres undefined),3.31%

row,SMILES,cytotoxicity at 70.5 h
1,CSCCC(NC(N)=O)C(=O)NCc1ccc(-n2cccn2)cc1 (centres undefined),-6.9%
2,CSc1ccsc1C(=O)NS(=O)(=O)c1cnn(C)c1,-15.6%
3,CC(=O)N1CCSCC1c1ccc(C)o1 (centres undefined),-8.59%
4,CN(CCCNC(=O)c1ccccc1F)CC(F)(F)F,-2.12%
5,Cc1ccc(CN2CCC[C@]3(C(=O)O)CN(C)C[C@@H]3C2)s1,-14.3%
6,COCCCn1ccnc1-c1cnc(OC)nc1,-9.97%
7,CC(CNC(=O)c1c[nH]nn1)Oc1ccccc1Br (centres undefined),-10.7%
8,CNc1cc(C)nc(N2CCC3(CC2)[C@H](O)C[C@@H]3OCCO)n1,-4.12%
9,NC(=O)NC(=O)Cn1ccc2sccc2c1=O,-5.03%
10,CCCc1cc(CNC(=O)Cc2cc(C)no2)on1,1.19%
11,CC(C)OCCCNC(=O)CN1CCN(c2nccs2)CC1,-4.41%
12,Cc1cc(NC(=O)C2CCN(c3ncccc3C#N)CC2)no1,3.46%
13,CN1CCN(C(=O)c2cc(-c3cnc(N4CCCC4)nc3)cn2C)CC1,-21.9%
14,Cc1nc(C(C)C)ncc1C(=O)N1CCCC(N2CCCC2)C1 (centres undefined),6.69%
15,O=S(=O)(N1CCCC1)N1C[C@@H](c2cccc(F)c2)[C@@H]2NCCCCC[C@H]21,-6.83%
16,Cc1nc(C)c(C(=O)N2CCc3nnc(C4CCCCN4C)n3CC2)s1 (centres undefined),-8.99%
17,O=C(CCNc1ncccn1)N1CCCC(n2cccn2)C1 (centres undefined),-5.02%
18,Cc1nn(C)c(Cl)c1CNCc1cccnc1N1CCCCC1,-2.26%
19,CC(C)c1ncc(Cl)c(C(=O)N2CCCN3CCCC3C2)n1 (centres undefined),-0.691%
20,COc1ncccc1C(=O)N1CC(c2nc(-c3cccs3)no2)C1,-5.8%
21,CC(=O)N1CCN(Cc2ccccn2)CC2(CC(=O)N(C)C2)C1 (centres undefined),0.971%
22,COc1ccc(NC(=O)CNc2cccc3c2CCCC3)c(OC)c1,29.7%
